Measured values as given in PubChem BioAssay (NCI).
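All cell lines were grown in 96-well plates and treated with compound for 48 hours. TGI marks complete inhibition of growth.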

What was measured:
Experiment in all cases: NCI tumour cell line growth inhibition, 48 h
[1] = system: SK-MEL-2 melanoma
[2] = system: HCT-15 colon
[3] = system: SF-539 CNS
[4] = system: SR leukemia
[5] = system: K-562 leukemia
[6] = system: MOLT-4 leukemia
[7] = system: MALME-3M melanoma
[8] = system: KM20L2 colon
[9] = system: HL-60(TB) leukemia
[10] = system: DMS 273 small cell lung
[11] = system: UACC-257 melanoma
[12] = system: SF-295 CNS
[13] = system: ACHN renal
[14] = system: OVCAR-3 ovarian
[15] = system: OVCAR-4 ovarian
[16] = system: OVCAR-8 ovarian
[17] = system: KM12 colon
[18] = system: DMS 114 small cell lung
[19] = system: 786-0 renal
[20] = system: UO-31 renal
[21] = system: SNB-75 CNS
[22] = system: SNB-19 CNS
[23] = system: HCC-2998 colon
[24] = system: LOX IMVI melanoma
[25] = system: NCI-H522 lung
[26] = system: UACC-62 melanoma
[27] = system: HCT-116 colon
[28] = system: NCI-H460 lung
[29] = system: M14 melanoma
[30] = system: A549 NSCLC
[31] = system: NCI-H226 lung
[32] = system: HT29 colon
[33] = system: M19-MEL melanoma
[34] = system: U251 CNS
[35] = system: SK-OV-3 ovarian
[36] = system: LXFL 529 NSCLC
[37] = system: SK-MEL-5 melanoma
[38] = system: DLD-1 colon
[39] = system: HOP-62 NSCLC
[40] = system: A498 renal
[41] = system: RXF 393 renal
[42] = system: RPMI-8226 leukemia
[43] = system: SN12C renal
[44] = system: SF-268 CNS
[45] = system: SK-MEL-28 melanoma
[46] = system: IGROV1 ovarian
[47] = system: SW-620 colon
[48] = system: CAKI-1 renal
[49] = system: OVCAR-5 ovarian

Measured: TGI

Cc1[nH]c(=O)[nH]c1C(=O)c1ccc(-n2ccnc2)cc1
> 100 µM: all assays above
